# Laboratory results: US20090291964A1, “Potentiators of Antibacterial Activity” (priority 2003, published 2009)
# Where two headings read alike, the source gives them in different places.
# Columns and labels:
# Type in all cases: cell-based
# S. aureus ATCC 29213 [1] = test: Minimal effective concentration (MEC) of EPI for gatifloxacin; conditions: lowest amount of EPI which produces the maximum effect on the MIC of gatifloxacin
# Protocol: (§1) The MEC was determined as the minimal concentration of EPI that produced the maximal reduction in substrate MIC.
# (§2) Since any given compound may be recognized by an unknown number of efflux pumps in a particular organism, we reasoned that the MEC of A-106 and C-9 should vary for different antibiotics. Also, the MEC of A-106 and C-9 should vary with the degree of efflux expression in a given strain. […] This was confirmed with two other wild type strains, SA-8325-4 and SA-1199 (Table 3).
# [2] = system: S. aureus SA-1199 (clinical isolate, susceptible); test: MIC of fluoroquinolones with and without EPI; conditions: for MIC: Staphylococcus aureus, read-out: MIC of EtBr with EPI
# Source text: (§3) A variety of strains may be used in these experiments, including, but not limited to, S. aureus ATCC 29213, E. faecalis ATCC 29212, and S. pneumoniae, S. aureus strains SA-1199, SA-1199B, SA-8325-4, and SA-K2068. S. aureus ATCC 29213, E. faecalis ATCC 29212, and S. pneumoniae ATCC 10015 were obtained from the American Type Culture Collection (Manassas, Va.). S. aureus strains SA-1199 (clinical isolate, susceptible), SA-1199B (SA-1199, NorA overproducing, also has A116E GrlA mutation), SA-8325-4 (NCTC 8325 cured of prophages), SA-K2068 (SA-8325-4, non-NorA multidrug efflux pump overproducing mutation) were obtained from Glenn Kaatz (Kaatz et al., “Identification and characterization of a novel efflux-related multidrug resistance phenotype in Staphylococcus aureus”, J. Antimicrob. Chemother. 50:833-838 (2002); 1993; Kaatz et al., “Phenothiazines and thioxanthenes inhibit multidrug efflux pump activity in Staphylococcus aureus”, Antimicrob. Agents Chemother. 47:719-726, Kaatz et al., “Efflux-mediated fluoroquinolone resistance in Staphylococcus aureus. Antimicrob. Agents Chemother.”, 37:1086-1094, 1993)).
# (§4) 3% sterile laked horse blood (Quad Five, Ryegate, Mont.) was added to assays for E. faecalis and S. Pneumoniae. A final concentration of 1% DMSO was present in all assays.
# S. aureus SA-8325-4 = test: MIC of fluoroquinolones with and without EPI; conditions: for MIC: Staphylococcus aureus
# Source text: as §3, §4
# S. aureus ATCC 29213 [3] = test: Ethidium bromide efflux fluorescence assay; conditions: EPIs at 4 times MEC for EtBr, A-106 at 100 μg/ml; versus control cells without EPI
# Protocol: S. aureus cells were loaded with EtBr as described in Example 1. EPIs were used at 4XMEC (minimal effective concentration) (25 μg/ml reserpine; 100 μg/ml VX-710 (compound A-106 in Table A-2); 6.25 μg/ml VX-853 (compound C-9 in Table C-I), and no EPI control—as labeled). Fluorescence was continuously monitored over time at room temperature and results are an average of at least 3 replicates.
# Ethidium bromide (EtBr) efflux assays with S. aureus were performed using the method described by Markham et al. (Markham, et al., “Multiple Novel Inhibitors of the NorA Multidrug Transporter of Staphylococcus aureus”, Antimicrob. Agents Chemother. 43:2404-2408 (1999)). […] Ethidium bromide efflux was determined by continuously monitoring fluorescence at an excitation wavelength of 530 nm and an emission wavelength of 600 nm in a black 96-well polystyrene plate with clear, flat bottom (Costar #3904, Cambridge, Mass.) using a SpectraMax Gemini spectrofluorimeter (Molecular Devices, Sunnydale, Calif.). […]
# Markham et al., “Multiple Novel Inhibitors of the NorA Multidrug Transporter of Staphylococcus aureus”, Antimicrob. […] Since ethidium only fluoresces when it is bound to nucleic acid inside of cells, a decrease in fluorescence over time is due to active efflux. […]
# S. aureus K2068 = test: Minimal effective concentration (MEC) of EPI for gatifloxacin; conditions: for MEC: S. aureus K2068 (nonNorA pump overproducer), lowest amount of EPI which produces the maximum effect on the MIC of gatifloxacin; for MEC for gatifloxacin: efflux mutant K2068
# Protocol: as §1, §2
# (§5) The MEC of A-106 and C-9 for gatifloxacin was determined in these efflux mutants. […] A similar result was obtained with efflux mutant K2068, where the MEC for A-106 was 6.25 μg/ml and the MEC for C-9 was 3.1 μg/ml. […] This may reflect that either gatifloxacin is recognized by fewer pumps than EtBr or it is a poorer efflux substrate in general. This is consistent with the finding that the activity of A-106 was non-saturable for EtBr but is saturable for gatifloxacin.
# S. aureus SA-1199B = test: as above; conditions: for MEC: S. aureus SA-1199B (NorA overproducer), lowest amount of EPI which produces the maximum effect on the MIC of gatifloxacin; for MEC for gatifloxacin: efflux mutant, strain not named in the sentence (SA-1199B by context)
# Protocol: as §1, §2, §5
# S. aureus ATCC 29213 [4] = test: MIC by NCCLS microdilution, antibacterial agents with and without EPI; conditions: at 100 μg/ml
# [5] = S. aureus SA-1199, EPI at 4X the MEC for EtBr, VX-710 at 100 μg/ml
# [6] = S. aureus SA-8325-4, EPI at 4X the MEC for EtBr, VX-710 at 100 μg/ml
Structure (SMILES),MEC (S. aureus ATCC 29213 [1]) [µg/mL],"MIC of ciprofloxacin with EPI [2, 5] [µg/mL]","MIC of gatifloxacin with EPI [2, 5] [µg/mL]","MIC of gentamicin with EPI [2, 5] [µg/mL]","MIC of levofloxacin with EPI [2, 5] [µg/mL]","MIC of norfloxacin with EPI [2, 5] [µg/mL]",MIC of ciprofloxacin with EPI (S. aureus SA-8325-4; [6]) [µg/mL],MIC of gatifloxacin with EPI (S. aureus SA-8325-4; [6]) [µg/mL],MIC of gentamicin with EPI (S. aureus SA-8325-4; [6]) [µg/mL],MIC of levofloxacin with EPI (S. aureus SA-8325-4; [6]) [µg/mL],MIC of norfloxacin with EPI (S. aureus SA-8325-4; [6]) [µg/mL],loss of EtBr fluorescence over time (FIG. 1) (S. aureus ATCC 29213 [3]),MEC (S. aureus K2068) [µg/mL],MEC for gatifloxacin (S. aureus K2068) [µg/mL],MEC (S. aureus SA-1199B) [µg/mL],MEC for gatifloxacin (S. aureus SA-1199B) [µg/mL],intrinsic antibacterial activity of EPI (S. aureus ATCC 29213 [4]),other results
"COc1cc(C(=O)C(=O)N(C)[C@@H](Cc2ccc(Cl)cc2)C(=O)N(Cc2ccccc2)C(CCc2ccncc2)CCc2ccncc2)cc(OC)c1OC [C-9, (S)—N-Benzyl-2-(methyl-(2-oxo-2-(3,4,5-trimethoxyphenyl)acetyl)amino)-3-(4-chloro-phenyl)-N-(3-pyridin-4-yl-1-(2-pyridin-4-yl-ethyl)propyl)propionamide]",>100,0.125,0.063,0.125,0.125,0.25,0.125,0.125,0.063,0.25,0.25,much more gradual loss of fluorescence,3.1,3.1,3.1,3.1,no intrinsic antibacterial activity,"MIC [2]: 1.6 µg/mL; MIC (S. aureus SA-8325-4; SA83254, read-out: MIC of EtBr with EPI): 0.8 µg/mL"
"COC(=O)[C@H]1[C@H]2C[C@@H]3c4[nH]c5cc(OC)ccc5c4CCN3C[C@H]2C[C@@H](OC(=O)c2cc(OC)c(OC)c(OC)c2)[C@@H]1OC [reserpine, reference compound]",>100,0.063,0.063,0.125,0.125,0.125,0.125,0.125,0.063,0.25,0.25,,3.1,,25,,,"MIC [2, 5]: 0.4 µg/mL; MIC (S. aureus SA-8325-4; SA83254, S. aureus SA-8325-4, EPI at 4X the MEC for EtBr, VX-710 at 100 μg/ml, read-out: MIC of EtBr with EPI): 0.4 µg/mL"
COc1cc(C(=O)C(=O)N2CCCC[C@H]2C(=O)OC(CCCc2cccnc2)CCCc2cccnc2)cc(OC)c1OC [A-106],>100,0.063,0.063,0.125,0.125,0.125,0.125,0.125,0.063,0.25,0.25,much more gradual loss of fluorescence,6.25,6.25,12.5,12.5,no intrinsic antibacterial activity,"MIC of EtBr with EPI [2, 5]: 0.2 µg/mL; MIC of EtBr with EPI (S. aureus SA-8325-4; [6]): <0.1 µg/mL"
